Patent US5359087A, “Bioactive quisqualic acid analogs” (Regents of the University of Minnesota, priority 1993, dated 1994)
Entries after “also recorded” stand apart in the source; their conditions may differ. Like-named read-outs stand apart in the source and are kept apart here. Blank lines part the entries; values can stand above or below the molecule they belong to.

Assays:
[1] = tested on: CA1 neurons (rat hippocampal slices); test: Inhibition of evoked synaptic field potential of CA1 neurons in hippocampal slices, before and after L-quisqualic acid exposure; format: cell-based, rat (male Sprague-Dawley); settings: for sensitization: fractional increase in potency after L-quisqualic acid (IC50 before vs after); for stimulatory activity prior to treatment with L-quisqualic acid: prior to treatment of hippocampal slices with L-quisqualic acid; for decrease of IC50 values after exposure of the tissue to L-quisqualic acid: IC50 before vs after L-quisqualic acid; for change in IC50 / sensitization after L-quisqualic acid: hippocampal slices after exposure to L-quisqualic acid
Description: The IC50 values for inhibition of the evoked synaptic field potential of CA1 neurons of analogs 2-5 were determined both before and after slices were exposed to L-quisqualic acid. Varying degrees of sensitization were observed as shown by the data on Table 2.
Potencies were determined before and after a 4minute exposure of slices t
16 μM Lquisqualic acid. Sensitization refers to the fractional increas
(§1) Transverse hippocampal slices were obtained from 30-100 day-old male Sprague-Dawley rats. Rats were anesthetized with urethane (1.5 g/kg ip) and then decapitated. The brain was removed and placed in ice-cold preparatory medium comprised of 124 mM NaCl, 3.3 mM KCl, 10 mM MgSO4, 0.5 mM CaCl2, 1.2 mM KH2 PO4, 10 mM glucose, and 26 mM NaHCO3 equilibrated with 95% O2 /5% CO2 (pH 7.4). The hippocampus was then isolated and sliced into 500-μm slices using a Campden Instruments VibroSlice microtome. Slices were submerged in preparatory medium at 28° C. which was aerated with 95% O2 /5% CO2 and incubated for 45 min. Slices were then transferred to recording medium comprised of 124 mM NaCl, 3.3 mM KCl, 2.4 mM MgSO4, 2.5 mM CaCl2, 1.2 mM KH2 PO4, 10 mM glucose, and 26 mM NaHCO3 aerated with 95% O2 /5% CO2 (pH 7.4) and incubated at 28° C. for at least 30 min. prior to use.
(§2) Slices were transferred to a small recording chamber containing the recording medium at 34° C. Initially, the upper surface of the slice was exposed to a humid atmosphere containing 95% O2 /5% CO2. Bipolar stimulation (0.1 ms, 10-40 V, 0.1 Hz) was delivered to the Schaffer collateral axons via a pair of Teflon-coated stainless steel wires (0.003 in.). […] The evoked extracellular synaptic field potentials were observed using a storage oscilloscope, and the peak amplitudes were sampled and recorded with a chart recorder. When a suitable field potential was obtained, the slice was submerged in oxygenated medium (34° C.) and the response allowed to stabilize. Test compounds were dissolved in oxygenated medium and were added and removed using a push/pull device allowing a complete change of medium within 30 sec.
Slices were exposed to L-AP4, L-quisqualic acid and the test compound in the following sequence, which is a modification of the previous method: (1) 200 μM L-AP4, (2) test compound, (3) 200 μM L-AP4, (4) 16 μM L-quisqualic acid, (5) 200 μM L-AP4, (6) test compound, (7) 200 μM L-AP4. Slices were washed between each addition of new drug until the peak amplitude of the field potential returned to its pretest level. Full concentration-response curves were determined for the test compound both before and after treatment of slices with L-quisqualic acid. In addition to determining the potency of compounds before and after addition of L-quisqualic acid, this protocol was designed to test for the ability of test compounds to induce the QUIS effect (and thus mimic the effects of L-quisqualic acid) and to test for the "preblocking" and "reversal" effects which have been previously observed only for L-homocysteine sulfinic acid, L-serine O-sulfate, and L-α-aminoadipic acid.
Concentration-response data were obtained by exposing the slice to a concentration of drug which was subthreshold for inhibition of the field potential. Drug concentration was doubled every 4 min until the response had either declined more than 70% or the bath concentration of the drug exceeded 10 mM. […] IC50 values were obtained. by plotting the fractional response remaining at the end of 4 min versus the log of the bath concentration of the drug. The concentration which produced a 50% inhibition of the peak amplitude (IC50) was interpolated from the graph. All reported IC50 values are the mean values for four or more experiments. The results are summarized on Table 2, above.

[2] = target: AMPA/Quisqualate Excitatory Amino Acid Receptor; test: [3H]AMPA radioligand receptor binding assay; settings: for % Inhibition of [3H]AMPA binding: compound concentration of 10^-5 M; for activity at the AMPA/quisqualate receptor: [3H]AMPA binding
Description: The assay that was used was a radioligand receptor binding assay using [^3 H]α-amino-3-hydroxy-5-methylisoxazole-4-propionic acid ([^3 H]AMPA) as the radioligand [Murphy et al., Neurochemical Research, 12, 775 (1987)].
^a Percent inhibition of [^3 H]AMPA binding at a compound
concentration of 10^-5 M.

[3] = tested on: QUIS effect in hippocampal slices (CA1 region); test: Capability to induce, preblock and reverse the QUIS effect in hippocampal slices; format: cell-based, rat (male Sprague-Dawley); settings: sensitization of slices to depolarization by AP4
Description: L-Quisqualic acid analogs 2-5 were tested for their capability to induce, preblock and reverse the QUIS effect by the procedures disclosed in the examples hereinbelow. […] Thus, L-quisqualic acid remains the only compound known to induce the QUIS effect. In addition, none of the analogs were capable of preblocking or reversing the sensitization induced by L-quisqualic acid. […] While the precise details are unknown, an induction mechanism shown in FIG. 2, involving multiple sites of interaction such as this, would explain the apparent strict structural requirements for induction, reversal and preblocking of the QUIS effect.
as §1, §2
Slices were exposed to L-AP4, L-quisqualic acid and the test compound in the following sequence, which is a modification of the previous method: (1) 200 μM L-AP4, (2) test compound, (3) 200 μM L-AP4, (4) 16 μM L-quisqualic acid, (5) 200 μM L-AP4, (6) test compound, (7) 200 μM L-AP4. […] Full concentration-response curves were determined for the test compound both before and after treatment of slices with L-quisqualic acid. […]

[4] = tested on: CA1 neurons (rat hippocampal slices); settings: data from Ref. 14, cited from earlier work; for IC50: CA1 region; for sensitization: fractional increase in potency
[5] = tested on: QUIS effect in CA1 neurons; settings: cited from earlier work; for reversal of the QUIS effect after it has been induced: CA1 neurons; for blocking (preblocking) of the QUIS effect: brief exposure of CA1 neurons, removed prior to L-quisqualic acid
kainate receptor = settings: cited from earlier work
[6] = tested on: CA1 neurons in rat hippocampal slices; settings: cited from earlier work
metabotropic receptor = settings: cited from earlier work
[7] = tested on: Ca^2+ /Cl^- -dependent glutamic acid uptake system; settings: brain synaptic plasma membrane preparations; cited from earlier work
[8] = tested on: N-acetyl α-linked acidic dipeptidase; settings: hydrolyzes the brain dipeptide Ac-Asp-Glu-OH; cited from earlier work
AMPA receptor = settings: cited from earlier work
[9] = Rattus norvegicus, Neuron, 4 min, CA1 region, after 4-minute exposure of slices to 16 μM L-quisqualic acid, read-out: IC50 Values ± SEM after quisqualic acid
[10] = Rattus norvegicus, Neuron, CA1 region of the hippocampus, before exposure to L-quisqualic acid, mean of four or more experiments, read-out: IC50 Values ± SEM before quisqualic acid
[11] = after 4-minute exposure to 16 μM L-quisqualic acid, read-out: IC50 Values after quisqualic acid
[12] = before L-quisqualic acid, read-out: IC50 Values before quisqualic acid

IC50 [1, 9]: 9.5 ± 2.5 µM | IC50 [1, 10]: 21 ± 4.4 µM | Ki ([2]; [3H]AMPA radioligand): 0.37 µM | % Inhibition of [3H]AMPA binding [2]: 93.5%
SMILES: N[C@@H](CC1=CC(=O)NC1=O)C(=O)O [Compound 2, (S)-2,5-Dihydro-2,5-dioxo-α-amino-1H-pyrrole-3-propanoic Acid]
sensitization [1]: 2.2 | stimulatory activity prior to treatment with L-quisqualic acid [1]: high stimulatory activity

decrease of IC50 values after exposure of the tissue to L-quisqualic acid [1]: more than 7 fold | IC50 [1, 9]: 375 ± 75 µM | IC50 [1, 10]: 2900 ± 320 µM
SMILES: N[C@@H](CC1=CC(=O)N(CC(=O)O)C1=O)C(=O)O [Compound 4, (S)-2,5-Dihydro-2,5-dioxo-α-amino-1-(carboxymethyl)pyrrole-3-propanoic Acid]
induction of the QUIS effect [3]: do not induce the QUIS effect | sensitization [1]: 7.7 | change in IC50 / sensitization after L-quisqualic acid [1]: the slices are sensitized to depolarization by these compounds following exposure to L-quisqualic acid; also recorded: first non-phosphorus compounds to which hippocampal slices are known to become sensitized

SMILES: N[C@@H](CCP(=O)(O)O)C(=O)O [L-AP4, L-2-amino-4-phosphonobutanoic acid]
IC50 [4, 11]: 55 µM | IC50 [4, 12]: 1800 µM | sensitization [4]: 33

decrease of IC50 values after exposure of the tissue to L-quisqualic acid [1]: more than 7 fold | IC50 [1, 9]: 6.8 ± 2.3 µM | IC50 [1, 10]: 95 ± 19 µM | % Inhibition of [3H]AMPA binding [2]: 1.1%
SMILES: CN1C(=O)C=C(C[C@H](N)C(=O)O)C1=O [Compound 3, (S)-2,5-Dihydro-2,5-dioxo-α-amino-1-methylpyrrole-3-propanoic Acid]
induction of the QUIS effect [3]: do not induce the QUIS effect | sensitization [1]: 14.0 | change in IC50 / sensitization after L-quisqualic acid [1]: the slices are sensitized to depolarization by these compounds following exposure to L-quisqualic acid; also recorded: first non-phosphorus compounds to which hippocampal slices are known to become sensitized

SMILES: N[C@@H](COS(=O)(=O)O)C(=O)O [L-serine O-sulfate]
reversal of the QUIS effect after it has been induced [5]: capable of reversing the QUIS effect | blocking (preblocking) of the QUIS effect [5]: the QUIS effect can be blocked

SMILES: N[C@H](Cn1oc(=O)[nH]c1=O)C(=O)O [D-quisqualic acid, reference compound]
IC50 ([1]; Rattus norvegicus, Neuron, 4 min, read-out: IC50 Values ± SEM after quisqualic acid): 10 ± 1.7 µM | IC50 ([1]; Rattus norvegicus, Neuron, read-out: IC50 Values ± SEM before quisqualic acid): 78 ± 8.5 µM | sensitization [1]: 7.5 | change in IC50 / sensitization after L-quisqualic acid [1]: slices become sensitized

SMILES: N[C@H](CCP(=O)(O)O)C(=O)O [D-AP4, D-2-amino-4-phosphonobutanoic acid]
IC50 [4, 11]: 152 µM | IC50 [4, 12]: 2600 µM | sensitization [4]: 17

SMILES: N[C@@H](CCCC(=O)O)C(=O)O [L-α-aminoadipic acid]
reversal of the QUIS effect after it has been induced [5]: capable of reversing the QUIS effect | blocking (preblocking) of the QUIS effect [5]: the QUIS effect can be blocked

IC50 [1, 9]: 0.8 ± 0.26 µM | IC50 [1, 10]: 1.4 ± 0.6 µM | IC50 ([1]; Rattus norvegicus, Neuron, CA1 region of the rat hippocampus, read-out: IC50, stimulatory effect on CA1 region of the rat hippocampus): 1.4 ± 0.6 µM
SMILES: N[C@@H](CN1CC(=O)NC1=O)C(=O)O [Compound 6]
induction of the QUIS effect [3]: did not exhibit the QUIS effect | sensitization [1]: 1.7 | stimulatory activity prior to treatment with L-quisqualic acid [1]: high stimulatory activity

IC50 [1, 9]: > 10000 µM | IC50 [1, 10]: > 10000 µM | activity at the AMPA/quisqualate receptor [2]: active at the AMPA/quisqualate receptor | % Inhibition of [3H]AMPA binding [2]: 55.5%
SMILES: N[C@@H](CC1CC(=O)NC1=O)C(=O)O (mixture of isomers) [Compound 5A, 2,5-Dioxo-α(S)-amino-3(RS)-pyrrolidinepropanoic Acid]
change in IC50 / sensitization after L-quisqualic acid [1]: No significant change in IC50 values

SMILES: N[C@@H](CCS(=O)O)C(=O)O [L-homocysteinesulfinic acid]
reversal of the QUIS effect after it has been induced [5]: capable of reversing the QUIS effect | blocking (preblocking) of the QUIS effect [5]: the QUIS effect can be blocked

SMILES: N[C@@H](Cn1oc(=O)[nH]c1=O)C(=O)O [L-quisqualic acid, L-Quisqualic acid]
affinity for the kainate receptor (kainate receptor): high affinity | IC50 [4, 11]: 2.9 µM | IC50 [4, 12]: 3.9 µM | sensitization [4]: 1.3 | sensitization of CA1 neurons to depolarization by D- or L-AP4 and related phosphonates [6]: 30-100 fold | affinity for the metabotropic receptor (metabotropic receptor): high affinity | induction of the QUIS effect [3]: only L-quisqualic acid sensitized slices to depolarization by AP4 | inhibition of Ca2+/Cl- -dependent glutamic acid uptake system [7]: inhibits | inhibition of N-acetyl α-linked acidic dipeptidase [8]: inhibits | affinity for the AMPA receptor (AMPA receptor): high affinity

IC50 ([1]; CA1 region of the hippocampus, before exposure to L-quisqualic acid, mean of four or more experiments, read-out: IC50 Values ± SEM before quisqualic acid): 9200 ± 1100 µM | IC50 ([1]; CA1 region, after 4-minute exposure of slices to 16 μM L-quisqualic acid, read-out: IC50 Values ± SEM after quisqualic acid): 6800 ± 930 µM | activity at the AMPA/quisqualate receptor [2]: active at the AMPA/quisqualate receptor
SMILES: N[C@@H](CC1CC(=O)NC1=O)C(=O)O (mixture of isomers) [Compound 5B, 2,5-Dioxo-α(S)-amino-3(RS)-pyrrolidinepropanoic Acid]
sensitization [1]: 1.3 | change in IC50 / sensitization after L-quisqualic acid [1]: No significant change in IC50 values
